# Values quoted from earlier work, collected in patent US20040023969A1, “Combination of an allosteric alkyne inhibitor of matrix metalloproteinase-13 with celecoxib or valdecoxib” (priority 2002, published 2004).
smiles,measurement,setting,value
"Cc1onc(-c2ccccc2)c1-c1ccc(S(N)(=O)=O)cc1 [valdecoxib, 4-(5-methyl-3-phenyl-4-isoxazolyl)-benzenesulfonamide]",Tolerability in clinical studies,combined analysis of various clinical studies,well tolerated
same,"Overall upper gastrointestinal safety profile (ulcers, perforations, obstructions and GI bleeds)","compared with ibuprofen, diclofenac and naproxen",significantly better than the conventional NSAIDs studied
